Test results as given in PMC11678426, “Phytochemical Study and In Vitro Antioxidant Activity of Helianthemum cinereum Along with Antitumor Activity of the Isolated trans-Tiliroside and Luteolin 4′-O-β-Xyloside” (Molecules, 2024).
Where “and” joins values, the source holds several entries; their conditions need not be identical. Equal values may be shown once. Values belong to the compound of their own block, whether it stands above or below them.

Experiments:
[1] = DPPH radical scavenging capacity
Method: Different concentrations of H. cinereum extract were prepared in methanol and aliquots of 100 μL were added to 3.5 mL of DPPH (Sigma-Aldrich, Steinheim, Germany) solution (30 μg/g in methanol). A blank consisting of DPPH solution without extract was prepared. All samples were kept in darkness for 15 min. Then, the absorbance was measured against a blank (Methanol) at 515 nm in a UV-Vis spectrophotometer (UV 1700, Shimadzu, Japan). The DPPH solution was daily prepared and the concentration was checked using a calibration curve obtained by preparation of serial concentrations (4, 8, 16, 32 and 64 μg/g). […] The obtained IC50 value is inversely proportional to the antioxidant activity.

[2] = set-up: method as in doi:10.3390/app7040400; settings: cited from earlier work
IL-5 = tested on: IL-5; set-up: method as in PMID 10418337; settings: from Kummerowia striata; cited from earlier work
[3] = tested on: Mia PaCa-2 pancreatic cancer cell line; assay: Cell viability by MTT assay, Mia PaCa-2; assay type: cell-based; settings: Mia PaCa-2, MTT; for IC50: Homo sapiens, 72 h exposure
Method: (§1) The immortalized human keratinocytes HaCaT cells were obtained from Cell Lines Services (Eppelheim, Germany). The A549 cell lines were acquired from the European Collection of Authenticated Cell Cultures (ECACC) and supplied by Sigma-Aldrich (St. Louis, MO, USA), the A375 cell lines were acquired from ATCC and supplied by LGC Standards (Barcelona, Spain), and Mia PaCa-2 and Panc-1 cell lines were kindly provided by Dr. Sónia Melo […], Porto, Portugal). […] Cells were cultured at 5% CO2 and at 37 °C. A stock solution was made by dissolving trans-tiliroside or luteolin 4'-O-β-xyloside in dimethyl sulfoxide (DMSO, Sigma-Aldrich, St. Louis, MO, USA). All cell lines were seeded in 96-well plates at a density of 12,500 cells/mL and incubated for 24 h for adhesion. […] After the exposure, cell viability was assessed by 3-(4,5-dimethyl-2-thiazolyl)-2,5-diphenyl-2H-tetrazolium bromide (MTT, Sigma-Aldrich, St. Louis, MO, USA) assay. Briefly, the exposure medium was replaced by fresh medium and 50 μL of MTT (1.0 mg/mL dissolved in phosphate-buffered saline, PBS, PAN-Biotech, Aidenbach, Germany) and plates were incubated for 3 h. Then, the medium was removed and 150 μL of DMSO was added and plates were shaken in the dark for 1 h. The absorbance was read in a microplate reader BioTek Synergy HT plate reader at 570 nm. Cells with only medium without compounds were used as control. Three independent assays were completed with three replicates each. Cell viability was further calculated using the Equation (3):(3) Cell Viability % of control=Sample Absorbance-Blank Absorbance/Control Absorbance-Blank Absorbance×100

A375 melanoma cell line = assay: Cell viability by MTT assay, A375; assay type: cell-based; settings: for concentrations giving significant decrease in cell viability: 72 h
Method: as §1

[4] = ABTS radical scavenging assay
Method: The ABTS radical scavenging activity of H. cinereum extracts was assessed according to the method described by. Firstly, 1 mL of ABTS (Sigma-Aldrich, Steinheim, Germany) stock solution (7 mM) was mixed with 88 μL of potassium persulfate solution (140 mM) and kept overnight protected from light and at room temperature. Next, the mixture was diluted with potassium buffer saline (0.2 M, pH 7.4) to obtain an ABTS solution with an absorbance of 0.70 ± 0.02 at 734 nm. […] The reaction took place in the dark for 6 min, and the absorbance at 734 nm was measured. Samples containing the same volume of methanol and the same dilution of ascorbic acid served as white and positive controls, respectively. […] A2 is the solvent and sample mixture absorbance and A0 is the absorbance of the solvent and ABTS radical mixture.

A549 cell line = tested on: A549 cell line; set-up: method as in PMID 20589534, PMID 29393891; settings: cited from earlier work
[5] = tested on: pancreatic cancer cell lines; set-up: method as in PMID 26527884; settings: cited from earlier work
[6] = tested on: immortalized human keratinocytes HaCaT; assay: Cell viability by MTT assay, HaCaT; assay type: cell-based; settings: 72 h exposure
Method: as §1, with “Then, the medium was removed and 150 μL of DMSO was added and plates were shaken in the dark for 1 h.” left out, “Cells with only medium without compounds were used as control. Three independent assays were completed with three replicates each.” left out

HaCaT cells = assay: Cell cycle analysis by flow cytometry, HaCaT; assay type: cell-based, human; settings: IC50 concentration (122 μM), 72 h
Method: (§2) Cells were seeded in 12-well plates as described before. […] Then, cells were collected, washed with PBS, fixed with 85% ethanol and stored at −20 °C until analysis. For analysis, cells were washed, resuspended in PBS and filtered to Eppendorf tubes. Samples were incubated with 50 μL of RNAse (Sigma-Aldrich, St. Louis, MO, USA) for 10 min and next with 50 μL of propidium iodide (PI, ≥94%; Sigma-Aldrich, St. Louis, MO, USA) for 20 min. Cells were analyzed with an Attune® Acoustic Focusing Cytometer (Applied Biosystems, Termo Fischer Scientific, Agawam, MA, USA) and the percentages of cells at each phase of the cell cycle were determined using the FlowJo software V10.7.1 (FlowJo LLC, Ashland, OR, USA). Two independent assays with two replicates each were performed, with at least 5000 events.

A375 cells = assay: Cell cycle analysis by flow cytometry, A375; assay type: cell-based; settings: A375, IC50 concentration (102 μM), 72 h
Method: as §2

[7] = tested on: B16-F10 cells, melanoma cell line; set-up: method as in earlier work; settings: 168 μM, 72 h; ref 41 (Lu et al. 2009); cited from earlier work
Mia PaCa-2 cells = assay: Cell cycle analysis by flow cytometry, Mia PaCa-2; assay type: cell-based; settings: Mia PaCa-2, IC50 concentration (46.2 μM), 72 h
Method: as §2

A549 cells = assay: Cell cycle analysis by flow cytometry, A549; assay type: cell-based; settings: A549, IC50 concentration (108 μM), 72 h
Method: as §2

Panc-1 cells [8] = tested on: Panc-1 cells; set-up: method as in PMID 38412575; settings: 72 h of exposure; read-out: IC50 growth of Panc-1 cells; cited from earlier work
[9] = tested on: Panc-1 pancreatic cancer cell line; assay: Cell viability by MTT assay, Panc-1; assay type: cell-based; settings: Panc-1, MTT
Method: as §1, with “Then, the medium was removed and 150 μL of DMSO was added and plates were shaken in the dark for 1 h.” left out, “Cells with only medium without compounds were used as control. Three independent assays were completed with three replicates each.” left out

Panc-1 cells [10] = assay: Cell cycle analysis by flow cytometry, Panc-1; assay type: cell-based; settings: Panc-1, IC50 concentration (54 μM), 72 h
Method: as §2

[11] = tested on: A549 lung cancer cell line; assay: Cell viability by MTT assay, A549; assay type: cell-based
Method: as §1, with “Then, the medium was removed and 150 μL of DMSO was added and plates were shaken in the dark for 1 h.” left out, “Cells with only medium without compounds were used as control. Three independent assays were completed with three replicates each.” left out

Compound: COc1cc2c(=O)oc3c(OC)c(OS(=O)(=O)O)cc4c(=O)oc(c1OC)c2c34 [Compound 12, 3,3′,4′-tri-O-methyl-ellagic acid 4-sulfate]
cytotoxic effect [2]: cytotoxic effect

Compound: O=c1cc(-c2ccc(OC3OC(CO)C(O)C(O)C3O)c(O)c2)oc2cc(O)cc(O)c12 (stereo not drawn) [Luteolin 4′-O-glucoside, luteolin 4′-O-β-glucoside]
IL-5 inhibition (IL-5): IL-5 inhibitor

Compound: O=c1cc(-c2ccc(O)c(O)c2)oc2cc(O)cc(O)c12 [luteolin aglycone, luteolin]
IC50 (A549 cell line): 32.6 µM and 40 µM
concentrations strongly affecting pancreatic cancer cell lines [5]: above 160 μM

Compound: O=C(/C=C/c1ccc(O)cc1)OC[C@H]1O[C@@H](Oc2c(-c3ccc(O)cc3)oc3cc(O)cc(O)c3c2=O)[C@H](O)[C@@H](O)[C@@H]1O [trans-tiliroside, kaempferol-3-O-[6″-O-(E)-p-coumaroyl]-β-D-glucoside]
IC50 [3]: 46.2 ± 0.89 µM
concentrations affecting cell viability ([3]; 72 h): ≥ 50 µM
IC50 [6]: 122 ± 1.8 µM
effect on cell cycle dynamics (HaCaT cells): no alterations on the cell cycle dynamics
effect on cell cycle dynamics (A375 cells): no alterations on the cell cycle dynamics
decline in the viability of B16-F10 cells [7]: 80%
concentrations giving significant decrease in cell viability (A375 melanoma cell line): ≥ 75 µM
IC50 (A375 melanoma cell line; Homo sapiens, A-375, 72 h exposure): 102 ± 2.56 µM
increase of cells at G2/M phase compared to the control (Mia PaCa-2 cells): 3.9%
increase of cells at the S phase compared to the control (Mia PaCa-2 cells): 5.6%
effect on cell cycle dynamics (A549 cells): no alterations on the cell cycle dynamics
IC50 (Panc-1 cells [8]): 68.5 µM
IC50 ([9]; Homo sapiens, 72 h exposure): 54 ± 1.95 µM
concentration causing decline of cell viability ([9]; 72 h): 10 µM
effect on cell cycle dynamics (Panc-1 cells [10]): no alterations on the cell cycle dynamics
concentrations giving significant decrease in cell viability ([11]; 72 h): ≥ 75 µM
IC50 ([11]; Homo sapiens, 72 h exposure): 108 ± 2.8 µM

Further lines, with some results ahead:

DPPH (IC50) [1]: 3.36 ± 0.13 µg/g
Compound: O=C1O[C@H]([C@@H](O)CO)C(O)=C1O [Ascorbic acid]

IC50 [3]: 229 ± 9.09 µM
Compound: O=c1cc(-c2ccc(OC3OCC(O)C(O)C3O)c(O)c2)oc2cc(O)cc(O)c12 (stereo not drawn) [Luteolin 4′-O-β-xyloside, luteolin 4′-O-β-xyloside]
concentrations giving significant decrease in cell viability (A375 melanoma cell line): up to 75 μM

DPPH (IC50) [1]: 12 ± 0.41 µg/mL
ABTS (IC50) [4]: 23.2 ± 0.54 µg/mL
Compound: Cc1c(C)c2c(c(C)c1O)CCC(C)(C(=O)O)O2 (centres unmarked) [Trolox]
